Test results from US8507290B2, “Water-soluble silsesquioxanes as organic quantum dots for sensing and imaging” (National University of Singapore, priority 2009, dated 2013).

What was measured:
[1] = system: breast cancer cells (MCF-7); assay: One-photon and two-photon fluorescent cellular nucleus imaging (CLSM); assay type: cell-based; details: 2 h, signals above 560 nm
Method: One-photon and two-photon fluorescence images of the MCF-7 cells were then obtained.
OPEF imaging was obtained by excitation of the cells at 488 nm and collection of fluorescence above 560 nm under the fixed parameters. […] As nucleolus is the site of ribosomal RNA synthesis, it has the highest concentration of RNA in nucleus.
For TPEF imaging, the dye concentrations are fixed at 1 μM, and the cellular images were acquired by excitation of the cells at near-infrared wavelength (760 nm) and collection of signals above 560 nm.

dsDNA and RNA = details: cited from earlier work

Molecule | two-photon fluorescence (TPEF) imaging of nucleus ([1]; MCF-7, 1 μM dye, excitation at 760 nm) | one-photon fluorescence (OPEF) imaging: uptake and localisation ([1]; MCF-7, dye 1 μM (also 0.1 and 0.02 μM), excitation at 488 nm) | light-up response toward dsDNA and RNA (commercial dyes) (dsDNA and RNA)
CCCN(CCCN(C)C)c1cc(/C=C2/Sc3ccccc3N2C)c2ccccc2[n+]1-c1ccccc1 [SG, SYBR Green I] | does not provide a clear cellular image | homogenously-stained nucleus pattern | only shows strong light-up response toward dsDNA
SYTO 9 |  |  | nearly equal light-up responses toward dsDNA and RNA
